Results reported in PubChem BioAssay (NCI).
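Protocol summary: plate cells (96-well), add compound at 5 concentrations, incubate 48 h, interpolate endpoints linearly. GI50: concentration for 50% inhibition of growth. The concentration for full growth arrest is given as TGI.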

How the values were obtained:
Test in all cases: NCI-60 cell line screen, 48 h
T-47D breast = tested on: T-47D breast
DU-145 prostate = tested on: DU-145 prostate
BT-549 breast = tested on: BT-549 breast
NCI/ADR-RES ovarian = tested on: NCI/ADR-RES ovarian
MCF7 breast = tested on: MCF7 breast
PC-3 prostate = tested on: PC-3 prostate
HS 578T breast = tested on: HS 578T breast
MDA-MB-435 = tested on: MDA-MB-435
SNB-78 CNS = tested on: SNB-78 CNS
M19-MEL melanoma = tested on: M19-MEL melanoma
DMS 114 small cell lung = tested on: DMS 114 small cell lung
HOP-18 NSCLC = tested on: HOP-18 NSCLC

SMILES | GI50 (T-47D breast) [µM] | TGI (T-47D breast) [µM] | GI50 (DU-145 prostate) [µM] | TGI (DU-145 prostate) [µM] | GI50 (BT-549 breast) [µM] | TGI (BT-549 breast) [µM] | GI50 (NCI/ADR-RES ovarian) [µM] | TGI (NCI/ADR-RES ovarian) [µM] | GI50 (MCF7 breast) [µM] | TGI (MCF7 breast) [µM] | GI50 (PC-3 prostate) [µM] | TGI (PC-3 prostate) [µM] | GI50 (HS 578T breast) [µM] | TGI (HS 578T breast) [µM] | GI50 (MDA-MB-435) [µM] | TGI (MDA-MB-435) [µM] | TGI (SNB-78 CNS) [µM] | TGI (M19-MEL melanoma) [µM] | TGI (DMS 114 small cell lung) [µM] | TGI (HOP-18 NSCLC) [µM]
COC(=O)c1c2c(c(C)[n+]([O-])c1C)C(=O)C(NCc1ccc(F)c(Cl)c1)=CC2=O | 1.84 | 5.09 | 2.44 | 7.89 | 1.88 | 5.81 | 2.08 | 6.92 | 1.32 | 3.23 | 2.27 | 12.9 | 3.22 | 21.5 | 1.47 | 2.87 |  |  |  | 
C=C(C)C1CC[C@]2(C(=O)O)CCC3(C)[C@H](CCC4[C@@]5(C)CC[C@H](OC6OC(CO)C(O)C6OC6OC(C)C(O)C(O)C6O)[C@@](C)(CO)C5CC[C@]43C)C12 (stereo partly specified) |  |  |  |  |  |  |  |  |  |  |  |  |  |  |  |  | > 100 | > 100 | > 100 | 
CS(=O)(=O)c1ccc(C(F)(F)F)cc1NC(=O)Nc1cnc(Oc2ccc(-c3cc(Cl)cnc3N)cc2)nc1 | 2.05 | 7.7 | 3.21 | > 54.2 | 2.26 | 6.5 | 2.92 | > 31 | 2.18 | 7.35 | 2.05 | 6.23 | 2.08 | 8.44 | 2.23 | 5.79 |  |  |  | 
O=C1Nc2ccccc2SC1C1SC(=S)N(Cc2ccccc2)C1=O (stereo unspecified) | 0.815 | 21.1 | 2.26 | 5.58 | 5.71 | 22.3 | 23.6 | 97.4 | 1.21 | 14.4 | 5.74 | > 43 | 5.52 | 31.2 | 3.04 | 15.5 |  |  |  | 
O=C(Nc1ccc(-n2cc(-c3ccncc3)c(-c3ccc(Cl)c(O)c3)n2)cc1)c1cc(Cl)cc(Cl)c1 | > 100 | > 100 | > 32.8 | > 100 | 2.53 | > 100 | 6.1 | > 100 | 6.21 | > 100 | 3.87 | > 100 | 4.3 | > 100 | 3.45 | > 100 |  |  |  | 
O=C(Oc1ccc([N+](=O)[O-])cc1)N1CCC(C(O)(c2ccc3c(c2)OCO3)c2ccc3c(c2)OCO3)CC1 | > 100 | > 100 | > 100 | > 100 | > 100 | > 100 | > 100 | > 100 | > 100 | > 100 | > 100 | > 100 | > 80.4 | > 100 | > 100 | > 100 |  |  |  | 
COCCN1C2=CCCCC2=Nc2c(N)nc(N)nc21 |  |  |  |  |  |  |  |  |  |  |  |  |  |  |  |  | > 100 | > 100 | > 100 | > 100
C#C[C@]1(O)CC[C@H]2[C@@H]3CC=C4c5nc(Nc6ccc(OC)cc6OC)sc5CC[C@]4(C)[C@H]3CC[C@@]21C | 2.67 | 15.7 | 2.32 | 10.8 | 0.656 | 4.77 | 2.36 | 17 | 0.978 | 2.65 | 0.845 | 9.02 | 0.411 | 2.36 | 1.76 | 4.39 |  |  |  | 
CNC(=O)OCc1nc(S(C)=O)n(C)c1COC(=O)NC (stereo unspecified) |  |  |  |  |  |  |  | > 100 |  | > 100 |  |  |  |  |  |  | > 92.1 | > 63.2 | > 56.2 | > 100
C=CC(=O)Nc1cc2c(Nc3ccc(OCc4ccccn4)c(Cl)c3)ncnc2cc1OCCN1CCOCC1 | < 0.0181 | > 100 | 0.502 | > 100 | 8.86 | 37.4 | 3.77 | > 100 |  | > 100 | 4.28 | > 100 | 2.01 | > 100 | 5.94 | > 86.5 |  |  |  | 
Cc1cccc(NC(=O)CC2C(=O)Nc3ccccc3S2(=O)=O)c1C (stereo unspecified) |  |  |  |  |  |  |  |  |  |  |  |  |  |  |  |  | 77.3 | > 100 | 51.6 | 61.9
N#Cc1ccc(-n2cnc(NC(=O)[C@H]3CCN(C#N)C3)c2)cc1 | 0.706 | 6.86 | 1.52 | 49.4 | 0.248 | 2.47 | 2.41 | > 86.8 | < 0.0378 | > 100 | 2.39 | 20.2 | 1.9 | 13.6 | 0.234 | 18.4 |  |  |  | 
CC(=O)Nc1ccc(/C=c2\sc3nnc(/C=C/c4ccccc4)n3c2=O)cc1 |  |  |  |  |  |  |  |  |  |  |  |  |  |  |  |  | > 50 | > 50 | > 50 | > 50
O=C(O)[C@@H]1C[C@@H](O)CN1 |  | > 100 |  | > 100 |  | > 100 |  | > 100 |  | > 100 |  | > 100 |  | > 100 |  | > 100 |  |  |  | 
